In patent US11951210B2, “Methods for making giant vesicles and their use” (THE JOHNS HOPKINS UNIVERSITY, priority 2017, dated 2024):

Biological target: FKBP (FK506 binding protein) and FRB (FKBP-rapamycin binding) protein (Homo sapiens, UniProt P42345+P62942)
Experiment: Chemically inducible dimerization (FKBP/FRB) protein translocation in GUVs on external rapamycin
Assay type: biochemical
Conditions: rapamycin added outside the vesicles
From the text: 3A) Schematic of the GUV containing fluorescently-labeled FK506 binding protein (FKBP) and FKBP-rapamycin binding (FRB) proteins. In this embodiment, FKBP peptide is fused to the positively charged myristoylated alanine-rich protein kinase c substrate (MARCKS) domain and binds to the negatively charged phosphatidylserine lipids present at the inner leaflet. The FKBP binding partner, FRB, is luminal. […] The normalized intensity profiles are the intensity traces of the dashed line in each image.
This was achieved by using the chemically inducible dimerization paradigm where FKBP (FK506 binding protein) and FRB (FKBP-rapamycin binding) protein can hetrodimerize in the presence of rapamycin.

FKBP (FK506 binding protein) and FRB (FKBP-rapamycin binding) protein, sequence (P62942 whole entry): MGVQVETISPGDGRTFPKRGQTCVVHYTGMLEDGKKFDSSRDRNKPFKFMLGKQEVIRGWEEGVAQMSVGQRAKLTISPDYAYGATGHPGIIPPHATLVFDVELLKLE
FKBP (FK506 binding protein) and FRB (FKBP-rapamycin binding) protein, sequence (P42345 2012-2144 limits assumed): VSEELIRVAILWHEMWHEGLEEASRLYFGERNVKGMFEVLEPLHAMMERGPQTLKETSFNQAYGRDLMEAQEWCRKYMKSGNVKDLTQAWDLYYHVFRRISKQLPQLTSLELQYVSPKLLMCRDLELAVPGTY

## CO[C@H]1C[C@@H]2CC[C@@H](C)[C@@](O)(O2)C(=O)C(=O)N2CCCC[C@H]2C(=O)O[C@H]([C@H](C)C[C@@H]2CC[C@@H](O)[C@H](OC)C2)CC(=O)[C@H](C)/C=C(\C)[C@@H](O)[C@@H](OC)C(=O)[C@H](C)C[C@H](C)/C=C/C=C/C=C/1C [rapamycin]
  Permeation of the GUV membrane: permeates the vesicles
